In paper PMC10561253, “2-NBDG Uptake in Gossypium hirsutum in vitro ovules: exploring tissue-specific accumulation and its impact on hexokinase-mediated glycolysis regulation” (Frontiers in Plant Science, 2023):

Test system: T1, GhHxk9
T1 construct: codon-optimized synthetic gene, E. coli BL21(DE3), pET-28-14His-bdSumo, tag cut off by bdSENP1, tagless wild-type; 51 kDa; printed residues: L398-K404 TLKDGEK, S132-R141 SEGLHFSPDR
Assay: coupled assay with E. coli glucose-6-phosphate dehydrogenase, absorbance at […] nm
Assay type: biochemical, Gossypium hirsutum
Conditions: 1 mM ATP, 10 mM MgCl2, 1 mM NADP+, 100 mM Tris pH 7.5, 30 °C; read-out: apparent Km

Compound OC[C@H]1OC(O)[C@H](O)[C@@H](O)[C@@H]1O (stereo partly drawn) [D-glucose] has a Km of 37 ± 19.8 µM.
